# Where two headings read alike, the source gives them in different places.
# Assays:
# EZH2 = EZH2 (Homo sapiens, UniProt Q15910); assay: AlphaLISA evaluation of inhibitory activity against EZH2; type: biochemical; conditions: DMSO control; for Enzyme inhibition % EZH2 5 nM: test material 5 nM; for Enzyme inhibition % EZH2 10 nM: test material 10 nM
# Experimental: (§1) In order to confirm the EZH1 and/or EZH2 activity inhibitory effect of the 1,3-benzodioxole derivative compounds represented by chemical formula I of the present invention, the activity was measured using an AlphaLISA test method.
# (§2) The test material dissolved in dimethylsulfoxide (DMSO) was diluted in a test solution (20 mM Tris pH 8.0, 0.1% BSA, 0.01% Triton X-100, 0.5 mM DTT) according to a final treatment concentration (5 nM or 10 nM), mixed with EZH1 and EZH2, respectively, and then added with histone H3 peptide and S-adenosylmethionine (SAM) to initiate an enzyme reaction. An acceptor bead was added thereto after reaction for two hours and subjected to an additional reaction for one hour, after which a donor bead was added thereto. After an additional reaction for 30 minutes, the reaction was completed. Activity was measured using the Magellan program on a Spark10M instrument. DMSO was used as a control group, an inhibition rate of enzyme activity was calculated using the following equation, and the results thereof are shown in Table 1 below.
# (§3) Activity inhibition rate (%)=(1−(Group treated with test material/Control group))*100
# [1] = system: Pfeiffer cells, lymphoma cells having EZH2 mutation (A677G); assay: Proliferation inhibition of cells of hematologic malignancies (CCK-8, 11 days); type: cell-based; conditions: 11 days culture, read-out: Cell proliferation inhibitory effect (IC50)
# Summary of the method: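 Pfeiffer lymphoma cells (EZH2 A677G) in RPMI1640 with 10% FBS were seeded at 10,000 cells/well and exposed to test material for 11 days, with compound replaced every 3–4 days. Viability was read by CCK-8 absorbance at 450 nm, and IC50 was derived by non-linear regression curve fitting.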
# EZH1 = EZH1 (Homo sapiens, UniProt Q92800); assay: AlphaLISA evaluation of inhibitory activity against EZH1; type: biochemical; conditions: DMSO control; for Enzyme inhibition % EZH1 5 nM: test material 5 nM; for Enzyme inhibition % EZH1 10 nM: test material 10 nM
# Experimental: as §1, §2, §3
# Chain of EZH2 (Q15910 whole entry): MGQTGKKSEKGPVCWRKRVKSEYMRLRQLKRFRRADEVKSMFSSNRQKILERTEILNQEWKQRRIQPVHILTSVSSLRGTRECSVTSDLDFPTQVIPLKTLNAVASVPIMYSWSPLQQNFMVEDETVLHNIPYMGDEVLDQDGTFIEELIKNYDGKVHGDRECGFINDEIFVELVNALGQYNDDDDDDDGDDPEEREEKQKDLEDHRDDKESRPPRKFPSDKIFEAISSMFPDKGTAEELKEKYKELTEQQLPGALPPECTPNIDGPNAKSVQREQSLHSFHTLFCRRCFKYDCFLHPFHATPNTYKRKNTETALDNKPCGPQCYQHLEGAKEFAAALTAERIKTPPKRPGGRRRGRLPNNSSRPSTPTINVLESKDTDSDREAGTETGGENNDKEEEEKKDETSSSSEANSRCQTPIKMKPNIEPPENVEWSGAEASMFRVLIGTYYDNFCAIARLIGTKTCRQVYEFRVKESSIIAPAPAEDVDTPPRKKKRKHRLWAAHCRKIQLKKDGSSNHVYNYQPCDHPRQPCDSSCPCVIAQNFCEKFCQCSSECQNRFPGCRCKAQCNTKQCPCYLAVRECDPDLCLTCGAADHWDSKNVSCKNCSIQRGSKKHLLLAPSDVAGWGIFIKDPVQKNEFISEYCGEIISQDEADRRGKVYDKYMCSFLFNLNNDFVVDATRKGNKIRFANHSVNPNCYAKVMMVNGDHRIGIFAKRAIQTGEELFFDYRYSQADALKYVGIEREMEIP
# Chain of EZH2 (O75530 whole entry partner): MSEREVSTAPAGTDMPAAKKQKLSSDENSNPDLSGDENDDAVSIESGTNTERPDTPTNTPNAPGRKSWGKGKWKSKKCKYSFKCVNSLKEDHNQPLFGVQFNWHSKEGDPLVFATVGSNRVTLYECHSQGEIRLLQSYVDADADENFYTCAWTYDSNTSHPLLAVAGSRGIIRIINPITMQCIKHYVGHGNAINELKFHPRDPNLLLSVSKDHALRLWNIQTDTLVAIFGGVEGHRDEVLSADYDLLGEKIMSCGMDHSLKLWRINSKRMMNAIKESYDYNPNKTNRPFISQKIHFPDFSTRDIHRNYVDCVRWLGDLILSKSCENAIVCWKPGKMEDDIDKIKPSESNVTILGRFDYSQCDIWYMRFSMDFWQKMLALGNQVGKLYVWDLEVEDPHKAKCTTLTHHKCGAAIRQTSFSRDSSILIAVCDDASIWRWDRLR
# Chain of EZH2 (Q15022 whole entry partner): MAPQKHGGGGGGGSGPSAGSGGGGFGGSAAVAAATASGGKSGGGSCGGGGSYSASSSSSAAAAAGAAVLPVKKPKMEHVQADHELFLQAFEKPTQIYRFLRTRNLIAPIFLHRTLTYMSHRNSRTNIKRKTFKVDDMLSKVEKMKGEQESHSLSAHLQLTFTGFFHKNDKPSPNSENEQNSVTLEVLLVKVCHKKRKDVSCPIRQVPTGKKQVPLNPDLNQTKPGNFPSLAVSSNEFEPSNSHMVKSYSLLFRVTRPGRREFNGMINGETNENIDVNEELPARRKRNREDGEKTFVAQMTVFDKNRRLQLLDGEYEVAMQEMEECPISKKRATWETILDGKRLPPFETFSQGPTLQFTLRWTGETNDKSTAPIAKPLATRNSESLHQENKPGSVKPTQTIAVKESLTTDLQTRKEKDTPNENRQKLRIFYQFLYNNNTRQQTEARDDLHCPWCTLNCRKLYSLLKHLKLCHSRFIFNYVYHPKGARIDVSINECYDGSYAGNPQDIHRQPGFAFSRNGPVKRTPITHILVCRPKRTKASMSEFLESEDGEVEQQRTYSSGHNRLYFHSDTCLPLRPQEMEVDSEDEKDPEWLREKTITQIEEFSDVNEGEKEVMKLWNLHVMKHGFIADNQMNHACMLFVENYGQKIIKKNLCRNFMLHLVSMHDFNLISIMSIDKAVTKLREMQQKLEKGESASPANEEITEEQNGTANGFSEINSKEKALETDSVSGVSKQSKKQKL
# Chain of EZH1 (Q92800 whole entry): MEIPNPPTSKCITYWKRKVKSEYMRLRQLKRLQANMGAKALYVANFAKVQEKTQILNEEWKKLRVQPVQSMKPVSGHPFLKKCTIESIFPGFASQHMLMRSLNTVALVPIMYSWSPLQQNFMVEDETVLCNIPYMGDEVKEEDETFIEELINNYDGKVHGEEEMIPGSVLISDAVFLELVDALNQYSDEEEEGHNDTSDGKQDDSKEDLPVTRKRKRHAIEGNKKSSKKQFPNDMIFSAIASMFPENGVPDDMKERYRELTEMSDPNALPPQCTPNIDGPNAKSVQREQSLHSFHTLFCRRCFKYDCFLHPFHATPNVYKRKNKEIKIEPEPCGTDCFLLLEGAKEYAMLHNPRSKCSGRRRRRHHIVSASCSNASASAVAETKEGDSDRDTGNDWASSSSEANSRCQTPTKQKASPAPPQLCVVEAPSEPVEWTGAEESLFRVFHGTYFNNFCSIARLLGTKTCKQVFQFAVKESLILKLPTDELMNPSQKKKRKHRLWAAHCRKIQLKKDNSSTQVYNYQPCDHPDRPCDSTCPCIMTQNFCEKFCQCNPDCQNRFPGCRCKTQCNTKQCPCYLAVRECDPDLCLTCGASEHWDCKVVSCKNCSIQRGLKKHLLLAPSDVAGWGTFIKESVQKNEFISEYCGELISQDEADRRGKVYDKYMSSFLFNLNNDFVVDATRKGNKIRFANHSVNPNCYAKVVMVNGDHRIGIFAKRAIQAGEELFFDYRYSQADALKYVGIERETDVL
# Chain of EZH1 (O75530 whole entry partner): as the sequence (O75530 whole entry partner) above
# Chain of EZH1 (Q15022 whole entry partner): as the sequence (Q15022 whole entry partner) above
structure (smiles),measurement,setting,value
"CSc1cc(C)[nH]c(=O)c1CNC(=O)c1cc(-c2ccc(N3CCOCC3)nc2)c2c(c1C)OC(C)(C1CCN(CC(F)(F)F)CC1)O2 (centres unmarked) [Compound 62, 2,4-dimethyl-N-((6-methyl-4-(methylthio)-2-oxo-1,2-dihydropyridin-3-yl)methyl)-7-(6-morpholinopyridin-3-yl)-2-(1-(2,2,2-trifluoro)piperidin-4-yl)benzo[d][1,3]dioxole-5-carboxamide]",Enzyme inhibition % EZH2 5 nM,EZH2,93.6%
same,Enzyme inhibition % EZH2 10 nM,EZH2,99.4%
same,IC50,[1],≤ 10 nM
same,Enzyme inhibition % EZH1 5 nM,EZH1,66.9%
same,Enzyme inhibition % EZH1 10 nM,EZH1,81.8%
"CSc1cc(C)[nH]c(=O)c1CNC(=O)c1cc(-c2cnc(N3CCOCC3)nc2)c2c(c1C)OC(C)(C1CCN(CC(F)(F)F)CC1)O2 (centres unmarked) [Compound 69, 2,4-dimethyl-N-((6-methyl-4-(methylthio)-2-oxo-1,2-dihydropyridin-3-yl)methyl)-7-(2-morpholinopyrimidin-5-yl)-2-(1-(2,2,2-trifluoro)piperidin-4-yl)benzo[d][1,3]dioxole-5-carboxamide]",Enzyme inhibition % EZH2 5 nM,EZH2,98.2%
same,Enzyme inhibition % EZH2 10 nM,EZH2,99.6%
same,IC50,[1],≤ 10 nM
same,Enzyme inhibition % EZH1 5 nM,EZH1,71.9%
same,Enzyme inhibition % EZH1 10 nM,EZH1,87.9%
CSc1cc(C)[nH]c(=O)c1CNC(=O)c1cc(-c2ccc(N3C[C@@H](C)O[C@@H](C)C3)nc2)c2c(c1C)OC(C)([C@H]1CC[C@H](N3CC(OCCCC(F)(F)F)C3)CC1)O2 (some centres unmarked) [Compound 104],Enzyme inhibition % EZH2 5 nM,EZH2,37.0%
same,Enzyme inhibition % EZH2 10 nM,EZH2,82.6%
same,IC50,"[1]; Homo sapiens, Pfeiffer, 264 h",≤ 10 nM
same,Enzyme inhibition % EZH1 10 nM,EZH1,19.9%
"CSc1cc(C)[nH]c(=O)c1CNC(=O)c1cc(-c2ccc(N3C[C@@H](C)O[C@@H](C)C3)nc2)c2c(c1C)OC(C)([C@H]1CC[C@H](N(C)CCc3ccccc3)CC1)O2 (stereo partly drawn) [Compound 112, 7-(6-((2S,6R)-2,6-dimethylmorpholino)pyridin-3-yl)-2,4-dimethyl-2-(trans-4-(methyl(phenethyl)amino)cyclohexyl)-N-((6-methyl-4-(methylthio)-2-oxo-1,2-dihydropyridin-3-yl)methyl)benzo[d][1,3]dioxole-5-carboxamide]",IC50,"[1]; Homo sapiens, Pfeiffer, 264 h",≤ 10 nM
"CSc1cc(C)[nH]c(=O)c1CNC(=O)c1cc(-c2ccc(N3C[C@@H](C)O[C@@H](C)C3)nc2)c2c(c1C)OC(C)([C@H]1CC[C@H](N(C)C3CCCCC3)CC1)O2 (stereo partly drawn) [Compound 114, 2-(trans-4-(cyclohexyl(methyl)amino)cyclohexyl)-7-(6-((2S,6R)-2,6-dimethylmorpholino)pyridin-3-yl)-2,4-dimethyl-N-((6-methyl-4-(methylthio)-2-oxo-1,2-dihydropyridin-3-yl)methyl)benzo[d][1,3]dioxole-5-carboxamide]",IC50,"[1]; Homo sapiens, Pfeiffer, 264 h",≤ 10 nM
"CSc1cc(C)[nH]c(=O)c1CNC(=O)c1cc(-c2ccc(N3C[C@@H](C)O[C@@H](C)C3)nc2)c2c(c1C)OC(C)([C@H]1CC[C@H](N(C)C(=O)C(F)(F)F)CC1)O2 (stereo partly drawn) [Compound 115, 7-(6-((2S,6R)-2,6-dimethylmorpholino)pyridin-3-yl)-2,4-dimethyl-N-((6-methyl-4-(methylthio)-2-oxo-1,2-dihydropyridin-3-yl)methyl)-2-(trans-4-(2,2,2-trifluoro-N-methylacetamido)cyclohexyl)benzo[d][1,3]dioxole-5-carboxamide]",IC50,"[1]; Homo sapiens, Pfeiffer, 264 h",10 to 100 nM
